In patent US9000194B2, “Mangromicin compound and production method therefor” (The Kitasato Institute, priority 2011, dated 2015):
Converted amounts (≈) assume the structure as drawn.

Tests used:
[1] = test system: human fetal lung-derived normal fibroblast MRC-5 cells; assay: Cytotoxicity test (MTT assay); assay type: cell-based; conditions: for IC50: Homo sapiens, MRC5, 168 h, seven days culture, MTT assay, read-out: IC50 value MRC-5 cell; for Selectivity index (MRC-5 cytotoxicity IC50 / anti-trypanosoma IC50): (IC50 values for cytotoxicity)/(IC50 values for anti-trypanosoma activity)
Experimental: J. Antibiotics, 54: 658 to 663, (2001)]. That is, the human fetal lung-derived normal fibroblast MRC-5 cells [can be provided by Dr. […], Belgium)] were maintained and subcultured in the MEM-medium containing 10% bovine fetal serum (FCS) and antibiotics and were used as the host cell model. […] The presence or absence of the proliferation of the MRC-5 cells was measured by colorimetric quantification by the MTT assay. […] Also, the selectivity index (SI) was calculated as (IC50 values for cytotoxicity)/(IC50 values for anti-trypanosoma activity).

[2] = test system: Trypanosoma brucei brucei GUTat 3.1 strain; assay: In vitro inhibitory activity on trypanosoma protozoa proliferation (Alamar Blue); conditions: for IC50: Trypanosoma brucei, 72 h, read-out: IC50 value Trypanosoma brucei brucei GUTat3.1 strain
[3] = test system: the microorganisms listed in Table 7; assay: Antibacterial activity, paper disc method, overall statement; assay type: cell-based; conditions: summary in words
Experimental: The antibacterial activities of Mangromicins A, B and C of the present invention were measured by the following method. Filter paper discs (Advantec, a diameter of 6 mm) were impregnated with 10 μL of 1 mg/mL solutions of Mangromicins A, B and C in methanol, and air-dried for a certain period of time to remove the solvent. Subsequently, the discs were placed on agar plates each containing the test bacteria shown in Table 7, followed by culturing at 35° C. for 24 hours. The diameter of the growth inhibiting zones formed around the paper discs was measured.

[4] = test system: Bacillus subtilis ATCC6633; assay: Antibacterial activity, paper disc method; assay type: cell-based; conditions: 6 mm disc, 10 μL of 1 mg/mL, 35° C., 24 hours, read-out: the diameter of inhibiton zones

| Structure (SMILES) | IC50 [1] [µg/mL] | IC50 [2] [µg/mL] | Selectivity index (MRC-5 cytotoxicity IC50 / anti-trypanosoma IC50) [1] | anti-trypanosoma activity compared to suramin and eflornithine ([2]; T.b.b. GUTat 3.1 strain, relative to suramin and eflornithine) | antibacterial activities on the microorganisms listed in Table 7 [3] | zone of inhibition at 1000 µg/mL [4] [mm] |
| --- | --- | --- | --- | --- | --- | --- |
| NCCCC(N)(C(=O)O)C(F)F (centres unmarked) [Eflornithine, eflornithine, reference compound] | > 100 | 2.27 (≈ 12.5 µM) | – | – | – | – |
| CCCC1C(O)=C2CCC3(C)CC(C)C(O3)C(O)C(O)C(C)C(=O)CC1OC2=O (centres unmarked) [Mangromicin A] | 16 (≈ 39 µM) | 2.44 (≈ 5.94 µM) | 6.6 | equivalent or slightly inferior | almost no antibacterial activities | – |
| CCCC1C(O)=C2CCC3(C)CC(C)C(O3)C(O)/C=C(\C)C(=O)CC1OC2=O (centres unmarked) [Mangromicin B] | 92.6 (≈ 236 µM) | 43.4 (≈ 111 µM) | 2.1 | – | almost no antibacterial activities | 7 |
| Cc1ccc(C(=O)Nc2ccc(S(=O)(=O)O)c3cc(S(=O)(=O)O)cc(S(=O)(=O)O)c23)cc1NC(=O)c1cccc(NC(=O)Nc2cccc(C(=O)Nc3cc(C(=O)Nc4ccc(S(=O)(=O)O)c5cc(S(=O)(=O)O)cc(S(=O)(=O)O)c45)ccc3C)c2)c1 [Suramin, suramin, reference compound] | > 100 | 1.58 (≈ 1.22 µM) | – | – | – | – |
